Blank lines part the entries; values can stand above or below the molecule they belong to.
Biological target: T1, Human Mineralocorticoid Receptor (hMR) (Homo sapiens, UniProt P08235)
T1 construct: Full-length cDNA was constructed from two fragments of hMR cDNA amplified separately; expressed in transfected cells; host or cells: FreeStyle 293 cells transiently transfected with pMCMVneo-hMR; supernatant of the freeze-thaw lysate after ultracentrifugation
T1 sequence (P08235 1-984): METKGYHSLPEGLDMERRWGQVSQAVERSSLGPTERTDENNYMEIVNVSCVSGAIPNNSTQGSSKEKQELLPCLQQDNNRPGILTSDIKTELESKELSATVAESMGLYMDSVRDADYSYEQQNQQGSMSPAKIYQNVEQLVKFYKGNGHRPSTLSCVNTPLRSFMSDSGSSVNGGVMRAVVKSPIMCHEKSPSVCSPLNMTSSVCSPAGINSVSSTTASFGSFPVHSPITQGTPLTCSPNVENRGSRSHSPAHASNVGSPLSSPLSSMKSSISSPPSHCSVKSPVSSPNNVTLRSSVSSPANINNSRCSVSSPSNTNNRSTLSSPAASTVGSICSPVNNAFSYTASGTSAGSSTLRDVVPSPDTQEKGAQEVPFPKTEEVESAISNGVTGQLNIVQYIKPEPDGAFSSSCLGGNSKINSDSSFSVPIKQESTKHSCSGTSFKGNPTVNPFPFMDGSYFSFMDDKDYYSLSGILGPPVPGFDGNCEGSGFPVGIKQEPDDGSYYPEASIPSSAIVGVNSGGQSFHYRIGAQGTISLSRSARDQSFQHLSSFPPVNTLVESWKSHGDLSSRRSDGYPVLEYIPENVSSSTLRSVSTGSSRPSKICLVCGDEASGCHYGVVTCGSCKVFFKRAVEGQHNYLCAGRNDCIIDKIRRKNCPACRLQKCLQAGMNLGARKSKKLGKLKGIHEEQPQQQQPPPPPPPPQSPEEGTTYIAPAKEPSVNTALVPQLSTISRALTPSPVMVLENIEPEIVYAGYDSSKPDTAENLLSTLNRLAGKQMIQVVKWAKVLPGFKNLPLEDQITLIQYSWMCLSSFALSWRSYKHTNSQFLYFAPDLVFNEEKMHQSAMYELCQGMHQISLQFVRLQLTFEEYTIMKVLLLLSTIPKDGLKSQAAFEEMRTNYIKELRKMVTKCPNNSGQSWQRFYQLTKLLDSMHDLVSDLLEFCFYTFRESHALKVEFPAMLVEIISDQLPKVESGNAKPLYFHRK
Test: Inhibition of binding of [3H]-aldosterone to hMR (lysate of FreeStyle 293 cells expressing hMR)
Conditions: compound at 10^−5 M; 10 nM [3H]-aldosterone; hMR lysate 1.0 mg/ml; 16 hr at 4° C.; read-out: Inhibition rate (at 10^−5 M)
Procedure: The following procedures described in this Example were carried out according to the methods described in Molecular Cloning—Cold Spring Harbor Laboratory (1989) or protocols specified by manufacturers. (1) Cloning of Human Mineralocorticoid Receptor (hMR) cDNA hMR cDNA was amplified by polymerase chain reaction (PCR) from human kidney cDNA library. Full-length cDNA was constructed from two fragments of hMR cDNA amplified separately. The primers were designed referring to the nucleotide sequence of hMR cDNA reported by Arriza et. al (Science 1987; 237: 268-275). The PCR reactions were carried out using Pyrobest® DNA polymerase (Takara). The PCR products were electrophoresed in agarose gel, and 1.7 kb (region (i)) and 1.5 kb (region (ii)) DNA fragments were recovered. Each DNA fragment was inserted into pCR®4Blunt-TOPO® vector (Invitrogen). The resulting plasmids thus obtained were designated as pB-hMR (i) and pB-hMR (ii). To obtain the full-length hMR cDNA, pB-hMR (i) was digested with XhoI and PvuI, and pB-hMR (ii) was digested with PvuI and KpnI, respectively, and the two cDNA fragments were ligated into pBlueScript®IISK+ vector (Stratagene). The resulting plasmid thus obtained was designated as pB-hMR. (2) Construction of hMR Expression Plasmid pMCMVneo (described in WO03/099793) was digested with XhoI and KpnI, and 5.6 kb fragment was ligated with 2.9 kb hMR cDNA fragment obtained by digestion of pB-hMR (described in above (1)) with XhoI and KpnI. The plasmid thus obtained was designated as pMCMVneo-hMR. (3) Expression of hMR in FreeStyle 293 Cells and Preparation of Cell Lysate FreeStyle 293 cells were inoculated at 1×10^8 cells in 93 ml FreeStyle™ 293 Expression Medium (Invitrogen) in a 500 ml Erlenmeyer flask and cultured at 37° C. under 8% CO2 for 1 hr. The cells were treated with 6.7 ml of the transfection mixture containing 100 μg of pMCMVneo-hMR obtained in above (2) and 133 μl of FreeStyle™ 293 Transfection Reagent (Invitrogen). The transfected cells were cultivated for 48 hr at 37° C. in 8% CO2 atmosphere. The cultivated cells were centrifuged and washed with TEG buffer (10 mM Tris-HCl (pH 7.2), 50 mM EDTA, 10% glycerol), and resuspended in 10 ml TEGM buffer (10 mM Tris-HCl (pH 7.2), 1 mM EDTA, 10% glycerol, 1 mM β-mercaptoethanol, 10 mM sodium molybdate, 1 mM dithiothreitol, 2 tablets/100 ml of protease inhibitor cocktail tablets (Roche)). The cell suspension was frozen with liquid nitrogen and thawed on ice, and ultra-centrifuged at 225,000×g for 20 min at 4° C. The supernatant fraction including hMR (hMR lysate) was collected and stored at −80° C. (4) Measurement of Inhibition Activity Against Binding of hMR and Aldosterone [^3H]-Aldosterone (Amersham Biosciences) as ligand was added at 10 nM to the reaction mixture including test compound at various concentration and hMR lysate (1.0 mg/ml) obtained in above (3) and mixture was filled up to 50.5 μl with TEGM buffer. The reaction mixture was incubated for 16 hr at 4° C. and 35 μl of dextran/gelatin coated charcoal suspension (5% charcoal, 0.5% dextran T-70 (Amersham Biosciences), 0.1% gelatin (SIGMA), 10 mM Tris HCl (pH 7.2), 1 mM EDTA) was added thereto to separate bound and free radioactive aldosterone. The mixture containing charcoal was incubated for 10 min at 4° C. and centrifuged at 910×g for 10 min at 4° C. Radioactivity in 30 μl of the supernatant was measured by TopCount™ (Packard). For the determination of nonspecific binding, cold Aldosterone instead of drug was added to reaction mixture at 100 μM. Specific binding was determined by subtracting nonspecific binding from total binding.

Compound: CCCC1Sc2nncn2N=C1c1ccc2c(c1)NC(=O)CO2 (centres unmarked) [Example 31, 6-(7-Propyl-7H-[1,2,4]triazolo[3,4-b][1,3,4]thiadiazin-6-yl)-2H-1,4-benzoxazin-3(4H)-one]
inhibition at 10 µM: ≥ 70%

Compound: O=C1COc2ccc(C3=Nn4cnnc4SC3c3ccccc3Cl)cc2N1 (centres unmarked) [Example 34, 6-[7-(2-chlorophenyl)-7H-[1,2,4]triazolo[3,4-b][1,3,4]thiadiazin-6-yl]-2H-1,4-benzoxazin-3(4H)-one]
inhibition at 10 µM: ≥ 70%

Compound: O=C1COc2ccc(C3=Nn4cnnc4SC3c3ccc(F)cc3)cc2N1 (centres unmarked) [Example 35, 6-[7-(4-Fluorophenyl)-7H-[1,2,4]triazolo[3,4-b][1,3,4]thiadiazin-6-yl]-2H-1,4-benzoxazin-3(4H)-one]
inhibition at 10 µM: ≥ 70%

Compound: O=C1COc2ccc(C3=NN(c4ccc(F)cc4)CC3c3ccccc3)cc2N1 (centres unmarked) [Example 49, 6-(1-(4-Fluorophenyl)-4-phenyl-4,5-dihydro-1H-pyrazol-3-yl)-2H-benzo[b][1,4]oxazin-3(4H)-one]
inhibition at 10 µM: ≥ 70%

Compound: O=C1COc2ccc(C3=NN(CC(F)(F)F)CC3c3ccccc3)cc2N1 (centres unmarked) [Example 53, 6-(4-Phenyl-1-(2,2,2-trifluoroethyl)-4,5-dihydro-1H-pyrazol-3-yl)-2H-benzo[b][1,4]oxazin-3(4H)-one]
inhibition at 10 µM: ≥ 70%

Compound: O=C1COc2ccc(C3=NN(C(=O)C(F)(F)F)CC3c3ccccc3)cc2N1 (centres unmarked) [Example 57, 6-(4-Phenyl-1-(2,2,2-trifluoroacetyl)-4,5-dihydro-1H-pyrazol-3-yl)-2H-benzo[b][1,4]oxazin-3(4H)-one]
inhibition at 10 µM: ≥ 70%

Compound: O=C1COc2ccc(C3=C(c4ccc(F)cc4)C(=O)N(c4ccccc4)C3=O)cc2N1 [Example 65, 3-(4-fluorophenyl)-4-(3-oxo-3,4-dihydro-2H-benzo[b][1,4]oxazin-6-yl)-1-phenyl-1H-pyrrole-2,5-dione]
inhibition at 10 µM: ≥ 70%

Compound: O=C1COc2ccc(C3=C(c4ccc(F)cc4)C(=O)N(c4ccc(F)cc4)C3)cc2N1 [Example 70, 6-(1,4-Bis(4-fluorophenyl)-5-oxo-2,5-dihydro-1H-pyrrol-3-yl)-2H-benzo[b][1,4]oxazin-3(4H)-one]
inhibition at 10 µM: ≥ 70%

Compound: O=C1COc2ccc(-c3cc(C(F)(F)F)nn3-c3ccc(F)cc3)cc2N1 [Example 71, 6-(1-(4-Fluorophenyl)-3-(trifluoromethyl)-1H-pyrazol-5-yl)-2H-benzo[b][1,4]oxazin-3(4H)-one]
inhibition at 10 µM: ≥ 70%

Compound: O=C1COc2ccc(-c3cc(C(F)(F)F)nn3-c3ccc(Cl)cc3)cc2N1 [Example 74, 6-(1-(4-Chlorophenyl)-3-(trifluoromethyl)-1H-pyrazol-5-yl)-2H-benzo[b][1,4]oxazin-3(4H)-one]
inhibition at 10 µM: ≥ 70%

Compound: Cc1ccccc1-n1nc(C(F)(F)F)cc1-c1ccc2c(c1)NC(=O)CO2 [Example 82, 6-(1-o-tolyl-3-(trifluoromethyl)-1H-pyrazol-5-yl)-2H-benzo[b][1,4]oxazin-3(4H)-one]
inhibition at 10 µM: ≥ 70%

Next, values leading:

inhibition at 10 µM: ≥ 70%
Compound: O=C1COc2ccc(C3=Nn4cnnc4SC3c3ccccc3)cc2N1 (centres unmarked) [Example 3, 6-(7-phenyl-7H-[1,2,4]triazolo[3,4-b][1,3,4]thiadiazin-6-yl)-2H-1,4-benzoxazin-3(4H)-one]

inhibition at 10 µM: ≥ 70%
Compound: O=C1COc2ccc(C3=Nn4ccnc4SC3c3ccccc3)cc2N1 (centres unmarked) [Example 5, 6-(2-Phenyl-2H-imidazo[2,1-b][1,3,4]thiadiazin-3-yl)-2H-1,4-benzoxazin-3(4H)-one]

inhibition at 10 µM: ≥ 70%
Compound: O=C1COc2ccc(C3=Nn4cc(C(F)(F)F)nc4SC3c3ccccc3)cc2N1 (centres unmarked) [Example 7, 6-[2-Phenyl-7-(trifluoromethyl)-2H-imidazo[2,1-b][1,3,4]thiadiazin-3-yl]-2H-1,4-benzoxazin-3(4H)-one]

inhibition at 10 µM: ≥ 70%
Compound: O=C1COc2ccc(C3=Nc4ccccc4SC3c3ccccc3)cc2N1 (centres unmarked) [Example 14, 6-(2-Phenyl-2H-1,4-benzothiazin-3-yl)-2H-1,4-benzoxazin-3(4H)-one]

inhibition at 10 µM: ≥ 70%
Compound: O=C1COc2ccc(C3=Nc4ccccc4OC3c3ccccc3)cc2N1 (centres unmarked) [Example 18, 2-Phenyl-2H,2′H-3,6′-bi-1,4-benzoxazin-3′(4′H)-one]

inhibition at 10 µM: ≥ 70%
Compound: O=C1COc2ccc(C3=Cc4ccccc4OC3c3ccccc3)cc2N1 (centres unmarked) [Example 19, 6-(2-Phenyl-2H-chromen-3-yl)-2H-1,4-benzoxazin-3(4H)-one]

inhibition at 10 µM: ≥ 70%
Compound: O=C1COc2ccc(C3=Cc4ccccc4SC3c3ccccc3)cc2N1 (centres unmarked) [Example 20, 6-(2-Phenyl-2H-thiochromen-3-yl)-2H-1,4-benzoxazin-3(4H)-one]

inhibition at 10 µM: ≥ 70%
Compound: NC1=NC=C(c2ccc3c(c2)NC(=O)CO3)C(c2ccccc2)S1 (centres unmarked) [Example 24, 6-(2-amino-6-phenyl-6H-1,3-thiazin-5-yl)-2H-1,4-benzoxazin-3(4H)-one]

inhibition at 10 µM: ≥ 70%
Compound: O=C1COc2ccc(C3=Cn4ccnc4SC3c3ccccc3)cc2N1 (centres unmarked) [Example 26, 6-(7-Phenyl-7H-imidazo[2,1-b][1,3]thiazin-6-yl)-2H-1,4-benzoxazin-3(4H)-one]

inhibition at 10 µM: ≥ 70%
Compound: O=C1COc2ccc(C3=Nc4ccccc4SC3c3ccccn3)cc2N1 (centres unmarked) [Example 43, 6-(2-Pyridin-2-yl-2H-1,4-benzothiazin-3-yl)-2H-1,4-benzoxazin-3(4H)-one]

inhibition at 10 µM: ≥ 70%
Compound: O=C1COc2ccc(C3=Cc4ccccc4SC3c3ccccn3)cc2N1 (centres unmarked) [Example 44, 6-(2-Pyridin-2-yl-2H-thiochromen-3-yl)-2H-1,4-benzoxazin-3(4H)-one]

inhibition at 10 µM: ≥ 70%
Compound: CS(=O)(=O)N1CC(c2ccccc2)C(c2ccc3c(c2)NC(=O)CO3)=N1 (centres unmarked) [Example 59, 6-(1-(Methylsulfonyl)-4-phenyl-4,5-dihydro-1H-pyrazol-3-yl)-2H-benzo[b][1,4]oxazin-3(4H)-one]

— patent publication US20090253687A1, “Fused Heterocyclic Compounds and Their Use as Mineralocorticoid Receptor Ligands” (priority 2005, published 2009)
